# Data published in patent US10721934B2, “Enhanced preservative” (Arch Chemicals, Inc., priority 2013, dated 2020).
# How the values were obtained:
# Format in all cases: cell-based
# [1] = tested on: Staphylococcus aureus; assay: MIC test, 96 well microtiter plate; details: Staphylococcus aureus, read-out: Minimum Inhibitory Concentration
# Description: (§1) MIC set up: A 96 well microtiter plate Minimum Inhibitory Concentration (MIC) test was run in broth suitable for the test organism. Serially diluted actives were prepared in sterilized water, and the start-up concentration varied depending on the efficacy range. Inocula prepared in 2× suitable broth was added into each well, and the final concentrations of bacteria were adjusted to approximately 5×10^5.
# (§2) Further MIC tests were conducted using different amine compounds in combination with a pyrithione and two different isothiazolinones. The procedures described in Example No. 1 were used.
# [2] = tested on: Aspergillus brasiliensis; assay: MIC test, 96 well microtiter plate; details: Aspergillus brasiliensis, read-out: Minimum Inhibitory Concentration
# Description: as §1, §2
# [3] = tested on: Aureobasidium pullulans; assay: MIC test, 96 well microtiter plate; details: Aureobasidium pullulans, read-out: Minimum Inhibitory Concentration
# Description: as §1, §2
# [4] = tested on: Candida albicans; assay: MIC test, 96 well microtiter plate; details: Candida albicans, read-out: Minimum Inhibitory Concentration
# Description: as §1, §2
# [5] = tested on: Escherichia coli; assay: MIC test, 96 well microtiter plate; details: Escherichia coli, read-out: Minimum Inhibitory Concentration
# Description: as §1, §2
# [6] = tested on: mixed bacterial inoculum (Pseudomonas aeruginosa, Enterobacter cloacae, Escherichia coli, Acinetobacter calcoaceticus); assay: Repeated inoculation of standard acrylic paint, streak plate rating
# Description: In the following experiments, a pyrithione, an isothiazolinone, and a biocide enhancing agent in accordance with the present disclosure were combined with a standard acrylic paint. The concentrations of the pyrithione, the isothiazolinone and the biocide enhancing agent were varied. The pyrithione, the isothiazolinone and the biocide enhancing agent were added alone and in various mixtures to the standard acrylic paint.
# The acrylic paint was then inoculated three times using a mixed bacterial inoculum. The bacterial inoculum, which comprised a bacterial suspension in water, contained the following four bacteria in equal proportions.
# The samples were streak plated at 24, 48, and 72 hours after inoculation. The streak plates were rated as follows;
structure (smiles),measurement,setting,value
"CCCCCCCCCCCC[N+](C)(C)[O-] [CDMA Oxide, cocodimethylamine oxide]",MIC,[1],13.9 µg/mL
same,MIC,[2],17.4 µg/mL
same,MIC,[3],13.9 µg/mL
same,MIC,[4],13.9 µg/mL
same,MIC,[5],557 µg/mL
same,streak plate rating,"[6]; Set Five, CDMA Oxide 1200 ppm, 1st inoculation 24 h",5 (>45 viable microorganisms Severely contaminated)
same,streak plate rating,"[6]; Set Five, CDMA Oxide 1200 ppm, 1st inoculation 48 h",5 (>45 viable microorganisms Severely contaminated)
same,streak plate rating,"[6]; Set Five, CDMA Oxide 1200 ppm, 1st inoculation 72 h",5 (>45 viable microorganisms Severely contaminated)
same,streak plate rating,"[6]; Set Five, CDMA Oxide 1200 ppm, 2nd inoculation 24 h",5 (>45 viable microorganisms Severely contaminated)
same,streak plate rating,"[6]; Set Five, CDMA Oxide 1200 ppm, 2nd inoculation 48 h",5 (>45 viable microorganisms Severely contaminated)
same,streak plate rating,"[6]; Set Five, CDMA Oxide 1200 ppm, 2nd inoculation 72 h",5 (>45 viable microorganisms Severely contaminated)
same,streak plate rating,"[6]; Set Five, CDMA Oxide 1200 ppm, 3rd inoculation 24 h",5 (>45 viable microorganisms Severely contaminated)
same,streak plate rating,"[6]; Set Five, CDMA Oxide 1200 ppm, 3rd inoculation 48 h",5 (>45 viable microorganisms Severely contaminated)
same,streak plate rating,"[6]; Set Five, CDMA Oxide 1200 ppm, 3rd inoculation 72 h",5 (>45 viable microorganisms Severely contaminated)
same,streak plate rating,"[6]; Set Two, CDMA Oxide alone, ppm not given, 1st inoculation 24 h",5 (>45 viable microorganisms Severely contaminated)
same,streak plate rating,"[6]; Set Two, CDMA Oxide alone, ppm not given, 1st inoculation 48 h",5 (>45 viable microorganisms Severely contaminated)
same,streak plate rating,"[6]; Set Two, CDMA Oxide alone, ppm not given, 1st inoculation 72 h",5 (>45 viable microorganisms Severely contaminated)
same,streak plate rating,"[6]; Set Two, CDMA Oxide alone, ppm not given, 2nd inoculation 24 h",5 (>45 viable microorganisms Severely contaminated)
same,streak plate rating,"[6]; Set Two, CDMA Oxide alone, ppm not given, 2nd inoculation 48 h",5 (>45 viable microorganisms Severely contaminated)
same,streak plate rating,"[6]; Set Two, CDMA Oxide alone, ppm not given, 2nd inoculation 72 h",5 (>45 viable microorganisms Severely contaminated)
same,streak plate rating,"[6]; Set Two, CDMA Oxide alone, ppm not given, 3rd inoculation 24 h",5 (>45 viable microorganisms Severely contaminated)
same,streak plate rating,"[6]; Set Two, CDMA Oxide alone, ppm not given, 3rd inoculation 48 h",5 (>45 viable microorganisms Severely contaminated)
same,streak plate rating,"[6]; Set Two, CDMA Oxide alone, ppm not given, 3rd inoculation 72 h",5 (>45 viable microorganisms Severely contaminated)
